System: TGFβ1-induced hHSC (α-SMA)
Test: α-SMA ELISA in TGFβ1-induced human primary hepatic stellate cells (single agents and combination matrix, EOB/EOHSA)
Assay type: cell-based
Conditions: 1 h preincubation, TGFβ1 1 ng/ml, 48 h, FIG. 1
Description: After 48 hours of incubation, the expression of α-SMA was measured by ELISA. […] Data are presented as mean (triplicates)±standard deviation (SD).
Combinations were tested in a dose-response matrix format and analyzed according to the excess over Bliss (EOB) additivism model. […] Data are presented as mean of quadruplicates. (B) EOB scores were calculated as described in Materials and Methods. […] Data are presented as mean (quadruplicates)±standard deviation (SD).
Combinations were tested in a dose-response matrix format and analyzed according to the excess over Bliss (EOB) additivism model. […] Data are presented as mean (quadruplicates)±standard deviation (SD).
Then, 2-fold and 4-fold higher and lower concentrations were selected.
The human primary hepatic stellate cells (hHSC) (Innoprot) were cultured under standard conditions, as described above.

O=C(Nc1ncc([N+](=O)[O-])s1)c1ccccc1O [TZ, tizoxanide]
antifibrotic activity (α-SMA) as single agent: profile similar to the parent drug

Source: patent US11191749B2, “Pharmaceutical compositions for combination therapy” (GENFIT, priority 2017, dated 2021)
